The values below come from patent US7459458B2, “Polymorph of N-methyl-N-(3-{3-[2-thienylcarbonyl]-pyrazol-[1,5-α]-pyrimidin-7-yl}phenyl)acetamide and compositions and methods related thereto” (Neurocrine Biosciences, Inc., priority 2002, dated 2008).

The data set can be described thus: Interconversion experiments (slurry) to evaluate thermodynamic stability of Compound 1 at room temperature. It is filed as physicochemical. The following applies: agitated 16 days. On the procedure: Interconversion experiments were carried out to evaluate the thermodynamic stability of Compound 1 at room temperature. Three slurries were prepared by making saturated isopropanol solutions of Compound 1, filtering the solutions through 0.2 μm filters, and then adding an amount (in the form of crystals) of a polymorphic form of Compound 1. To the first slurry, equal amounts of both polymorph Form II and polymorph Form III (i.e., approximately 25 mg each) were added; to the second slurry, equal amounts of polymorph From I and polymorph Form III (i.e., approximately 25 mg each) were added; and to the third slurry, approximately 25 mg of polymorph Form III was added. The slurries were then agitated for 16 days. The resulting solids were collected by vacuum filtration, air-dried, and analyzed using XRPD.

Turning to `CC(=O)N(C)c1cccc(-c2ccnc3c(C(=O)c4cccs4)cnn23)c1` [polymorph Form III, N-methyl-N-(3-{3-[2-thienylcarbonyl]-pyrazol-[1,5-α]-pyrimidin-7-yl}phenyl)acetamide], the “solid form obtained from slurry (XRPD)” value by setting is: (saturated isopropanol slurry seeded with approx. 25 mg polymorph Form III alone) “exclusively polymorph Form III”; (saturated isopropanol slurry seeded with equal amounts (approx. 25 mg each) of polymorph Form I and Form III) “polymorph Form III as the predominant product, with only a minor amount of polymorph Form I”; (saturated isopropanol slurry seeded with equal amounts (approx. 25 mg each) of polymorph Form II and Form III) “exclusively polymorph Form III”.
